Test results reported in the supplement of paper PMC6045584.
± gives the standard deviation of the averaged measurements.

Key:
GEFITINIB = compound: COc1cc2ncnc(Nc3ccc(F)c(Cl)c3)c2cc1OCCCN1CCOCC1 [GEFITINIB]; assay: surviving fraction relative to DMSO-only wells; higher = less growth inhibition; conditions: exposure time: 5 days
Method in brief: (§1)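 Continuous five-day exposure to inhibitors at 0.5, 1, 5, 10, 50, 100, 500 and 1000 nM started 24 hours after log-phase tumour cell lines were seeded at 250–500 cells per well in 384-well plates. Luminescence was read after 10 minutes at room temperature. Viability is given as surviving fraction, meaning CellTiter-Glo luminescence normalised to the median of DMSO-only wells.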

CELECOXIB = compound: Cc1ccc(-c2cc(C(F)(F)F)nn2-c2ccc(S(N)(=O)=O)cc2)cc1 [CELECOXIB]; assay: as above; conditions: exposure time: 5 days
Method in brief: as §1

| Test System | surviving fraction (GEFITINIB; 0.5 nM) | surviving fraction (GEFITINIB; 1 nM) | surviving fraction (GEFITINIB; 5 nM) | surviving fraction (GEFITINIB; 10 nM) | surviving fraction (GEFITINIB; 50 nM) | surviving fraction (GEFITINIB; 100 nM) | surviving fraction (GEFITINIB; 500 nM) | surviving fraction (GEFITINIB; 1000 nM) | surviving fraction (CELECOXIB; 0.5 nM) | surviving fraction (CELECOXIB; 1 nM) | surviving fraction (CELECOXIB; 5 nM) | surviving fraction (CELECOXIB; 10 nM) | surviving fraction (CELECOXIB; 50 nM) | surviving fraction (CELECOXIB; 100 nM) | surviving fraction (CELECOXIB; 500 nM) | surviving fraction (CELECOXIB; 1000 nM) |
| --- | --- | --- | --- | --- | --- | --- | --- | --- | --- | --- | --- | --- | --- | --- | --- | --- |
| SG27 HEADNECK | 1.11 ± 0.041 | 1.1 ± 0.074 | 1.03 ± 0.037 | 1.16 ± 0.12 | 1.14 ± 0.13 | 1.12 ± 0.13 | 1.09 ± 0.024 | 1.11 ± 0.016 | 1.18 ± 0.086 | 1.14 ± 0.069 | 1.14 ± 0.09 | 1.13 ± 0.046 | 1.3 ± 0.084 | 1.17 ± 0.23 | 1.12 ± 0.15 | 1.21 ± 0.081 |
| VCAP PROSTATE | 1.13 ± 0.089 | 1.11 ± 0.14 | 1.13 ± 0.12 | 1.15 ± 0.14 | 1.19 ± 0.083 | 1.08 ± 0.056 | 1.21 ± 0.16 | 1.07 ± 0.076 | 1.07 ± 0.068 | 1.08 ± 0.17 | 1.06 ± 0.067 | 1.14 ± 0.1 | 1.13 ± 0.018 | 1.12 ± 0.072 | 1.07 ± 0.029 | 1.05 ± 0.11 |
| HCC1806 BREAST | 1.02 ± 0.11 | 1.08 ± 0.11 | 1.19 ± 0.1 | 1.2 ± 0.11 | 1.04 ± 0.14 | 0.925 ± 0.098 | 0.62 ± 0.069 | 0.61 ± 0.01 | 1.08 ± 0.049 | 1.01 ± 0.16 | 1.11 ± 0.084 | 1.1 ± 0.18 | 1.11 ± 0.039 | 1.25 ± 0.09 | 1.09 ± 0.059 | 1.08 ± 0.077 |
| SAOS2 BONE | 1.11 ± 0.021 | 1.04 ± 0.065 | 1.21 ± 0.035 | 1.09 ± 0.05 | 1.12 ± 0.061 | 1.13 ± 0.06 | 1.01 ± 0.038 | 0.907 ± 0.08 | 1.14 ± 0.078 | 1.05 ± 0.026 | 1.187 ± 0.01 | 1.14 ± 0.06 | 1.22 ± 0.07 | 1.23 ± 0.054 | 1.11 ± 0.021 | 1.09 ± 0.018 |
| HS57T BREAST | 0.973 ± 0.033 | 0.994 ± 0.088 | 1.01 ± 0.024 | 1.02 ± 0.05 | 1.05 ± 0.059 | 1.02 ± 0.061 | 1.01 ± 0.065 | 0.9383 ± 0.0032 | 1.028 ± 0.0046 | 1.04 ± 0.052 | 1.06 ± 0.022 | 1.09 ± 0.08 | 1.04 ± 0.06 | 1.09 ± 0.04 | 1.02 ± 0.055 | 0.867 ± 0.021 |
| SG43 HEADNECK | 1.36 ± 0.4 | 1.21 ± 0.45 | 0.814 ± 0.26 | 0.825 ± 0.2 | 0.649 ± 0.17 | 0.406 ± 0.034 | 0.264 ± 0.033 | 0.21 ± 0.043 | 0.96 ± 0.3 | 1.22 ± 0.49 | 0.942 ± 0.31 | 0.929 ± 0.28 | 0.938 ± 0.21 | 1.14 ± 0.051 | 1.04 ± 0.035 | 1.08 ± 0.08 |
| SIHA CERVIX | 1.01 ± 0.017 | 1.01 ± 0.076 | 1.08 ± 0.053 | 1.07 ± 0.091 | 1.12 ± 0.11 | 1.1 ± 0.059 | 0.99 ± 0.084 | 0.956 ± 0.061 | 1.08 ± 0.065 | 1 ± 0.064 | 1.08 ± 0.033 |  | 1.06 ± 0.072 | 1.11 ± 0.026 | 1.07 ± 0.067 | 1.05 ± 0.064 |
| KPD BONE | 0.994 ± 0.06 | 1.01 ± 0.04 | 0.84 ± 0.36 | 0.81 ± 0.34 | 1.06 ± 0.1 | 1.04 ± 0.076 | 0.952 ± 0.04 | 0.934 ± 0.029 | 1.04 ± 0.1 | 1.01 ± 0.054 | 1.11 ± 0.065 | 1.07 ± 0.029 | 1.05 ± 0.04 | 1.07 ± 0.12 | 1.05 ± 0.012 | 0.934 ± 0.043 |
| YAMATO SYNOVIAL | 1.24 ± 0.098 | 1.21 ± 0.05 | 1.25 ± 0.043 | 1.36 ± 0.15 | 1.42 ± 0.086 | 1.32 ± 0.1 | 1.35 ± 0.08 | 1.09 ± 0.046 | 1.3 ± 0.17 | 1.38 ± 0.056 | 1.4 ± 0.12 | 1.47 ± 0.11 | 1.42 ± 0.11 | 1.47 ± 0.14 | 1.39 ± 0.094 | 1.36 ± 0.21 |
| SCC003 HEADNECK | 1.02 ± 0.057 | 1.01 ± 0.056 | 1.1 ± 0.027 | 0.995 ± 0.11 | 0.945 ± 0.026 | 0.857 ± 0.035 | 0.54 ± 0.043 | 0.47 ± 0.029 | 1.07 ± 0.033 | 1.1 ± 0.049 | 1.05 ± 0.034 | 1.06 ± 0.027 | 1.12 ± 0.11 | 1.09 ± 0.049 | 1.13 ± 0.11 | 1.08 ± 0.067 |
| CAL72 BONE | 1.01 ± 0.11 | 1.02 ± 0.088 | 1.05 ± 0.099 | 1.02 ± 0.082 | 1.11 ± 0.054 | 1.13 ± 0.098 | 1.07 ± 0.074 | 1.05 ± 0.11 | 1.03 ± 0.1 | 1.04 ± 0.14 | 1.05 ± 0.11 | 1.04 ± 0.046 | 1.06 ± 0.12 | 1.08 ± 0.17 | 1.07 ± 0.13 | 1.09 ± 0.12 |
| HCC1395 BREAST | 1.07 ± 0.057 | 1.07 ± 0.035 | 1.18 ± 0.12 | 1.22 ± 0.17 | 1.24 ± 0.059 | 1.21 ± 0.045 | 1.2 ± 0.085 | 1.11 ± 0.039 | 1.17 ± 0.084 | 1.2 ± 0.13 | 1.32 ± 0.041 | 1.26 ± 0.053 | 1.27 ± 0.038 | 1.22 ± 0.041 | 1.25 ± 0.053 | 1.21 ± 0.037 |
| RDES SOFT TISSUE | 1.07 ± 0.13 | 1.06 ± 0.15 | 1.05 ± 0.058 | 1.17 ± 0.079 | 1.03 ± 0.26 | 1.22 ± 0.12 | 1.16 ± 0.19 | 1.2 ± 0.14 | 1.11 ± 0.11 | 1.16 ± 0.14 | 1.19 ± 0.069 | 1.11 ± 0.077 | 1.16 ± 0.25 | 1.27 ± 0.11 | 1.17 ± 0.14 | 1.15 ± 0.045 |
| HCC38 BREAST | 1.05 ± 0.086 | 1.33 ± 0.089 | 1.25 ± 0.17 | 1.24 ± 0.1 | 1.23 ± 0.13 | 1.29 ± 0.03 | 1.1 ± 0.096 | 1.18 ± 0.053 | 1.17 ± 0.23 | 1.4 ± 0.23 | 1.33 ± 0.23 | 1.36 ± 0.25 | 1.25 ± 0.1 | 1.17 ± 0.0085 | 1.09 ± 0.095 | 1.15 ± 0.12 |
| HELA CERVIX | 1.07 ± 0.044 | 1.05 ± 0.019 | 1.106 ± 0.0031 | 1.06 ± 0.033 | 1.15 ± 0.029 | 1.14 ± 0.022 | 1.18 ± 0.065 | 1.14 ± 0.058 | 1.09 ± 0.049 | 1.11 ± 0.047 | 1.05 ± 0.058 | 1.05 ± 0.039 | 1.09 ± 0.018 | 1.16 ± 0.044 | 1.14 ± 0.033 | 1.13 ± 0.049 |
| MDAMB436 BREAST | 1.02 ± 0.091 | 1.01 ± 0.06 | 0.994 ± 0.026 | 1.09 ± 0.098 | 0.993 ± 0.12 | 1.03 ± 0.084 | 1.08 ± 0.098 | 1.08 ± 0.1 | 0.986 ± 0.11 | 1.09 ± 0.23 | 1.03 ± 0.085 | 1.04 ± 0.11 | 1.03 ± 0.11 | 1.03 ± 0.14 | 0.992 ± 0.076 | 0.992 ± 0.11 |
| HU09 BONE | 0.997 ± 0.069 | 0.921 ± 0.055 | 0.972 ± 0.023 | 1.02 ± 0.079 | 1.1 ± 0.018 | 1.09 ± 0.075 | 1.1 ± 0.16 | 0.952 ± 0.1 | 1 ± 0.092 | 0.961 ± 0.061 | 1.08 ± 0.027 | 1.03 ± 0.13 | 1.04 ± 0.05 |  | 0.952 ± 0.18 | 0.846 ± 0.02 |
| NCIH441 LUNG | 1.17 ± 0.048 | 1.15 ± 0.064 | 1.07 ± 0.089 | 1.114 ± 0.0055 | 1.07 ± 0.18 | 1.12 ± 0.18 | 1.01 ± 0.21 | 0.963 ± 0.058 | 1.16 ± 0.019 | 1.19 ± 0.043 | 1.1 ± 0.11 | 1.11 ± 0.035 | 1.11 ± 0.068 | 1.06 ± 0.17 | 1.06 ± 0.14 | 1.1 ± 0.19 |
| OSHN BONE | 1.1 ± 0.012 | 1.11 ± 0.017 | 1.12 ± 0.013 | 1.13 ± 0.026 | 1.15 ± 0.0076 | 1.15 ± 0.024 | 1.142 ± 0.0066 | 1.11 ± 0.021 | 1.099 ± 0.0076 | 1.091 ± 0.0078 | 1.13 ± 0.018 | 1.1 ± 0.019 | 1.132 ± 0.0091 | 1.15 ± 0.029 | 1.15 ± 0.023 | 1.11 ± 0.015 |
| H23 LUNG | 1.01 ± 0.07 | 0.997 ± 0.032 | 0.989 ± 0.014 | 0.918 ± 0.03 | 0.603 ± 0.075 | 0.458 ± 0.053 | 0.356 ± 0.05 | 0.346 ± 0.0093 | 1.01 ± 0.018 | 1.04 ± 0.062 | 1.04 ± 0.021 | 1.03 ± 0.05 | 1.07 ± 0.05 | 1.18 ± 0.067 | 1.18 ± 0.015 | 1.16 ± 0.074 |
| CADOES1 SOFT TISSUE | 1.01 ± 0.045 | 0.9 ± 0.058 | 0.852 ± 0.063 | 0.906 ± 0.13 | 0.824 ± 0.12 | 0.942 ± 0.11 | 0.953 ± 0.12 | 0.995 ± 0.16 | 0.792 ± 0.11 | 0.925 ± 0.091 | 0.807 ± 0.17 | 0.984 ± 0.052 | 0.973 ± 0.043 | 0.942 ± 0.024 | 0.888 ± 0.045 | 0.827 ± 0.097 |
